The values that follow come from US20240052005A1, “IMPROVED CELL-PENETRATING PEPTIDES AND FUSION PROTEINS” (ANASTASIS BIOTEC LIMITED, priority 2020, published 2024).

Entries after “also recorded” stand apart in the source; their conditions may differ.

For one experiment, the system named is SKOV-3 tumour cells. The experiment can be described thus: Intranuclear trafficking into cancer cells, scored by immunofluorescence. The experiment is classed as cell-based, human. As to conditions: free protein alone. The text has this:
FIG. 2 Intranuclear trafficking of ANTP and ANTP-p21 conjugates into the nuclei of SKOV-3 tumour cells.
Cells, into which the protein had penetrated intranuclearly, were scored positive by immunofluorescence.

The next experiment relates to Human cell-line SKOV3. The experiment can be described thus: Cell transduction visualised with FITC-conjugated anti-HIS antibody. The format is cell-based. The following applies: 0.01 mg/mL, 1 hour at 37° C. The method, then: Human cell-line SKOV3 was cultured in DMEM media with 10% serum at 37° C., 5% CO2 until 40% confluency in a 96-well culture dish. The media was removed and replaced with 0.1 mL tissue culture-grade PBS and unmodified ANTP, unmodified MAML and ANTP-PEG-2-MAML were added to a final concentration of 0.01 mg/mL. Cell transduction was allowed to proceed for 1 hour at 37° C. Next, the PBS was removed and replaced with DMEM/serum and the cells were grown overnight as above. The transduced cells were then fixed using 1% glutaraldehyde at room temperature for 1 hr and permeabilized using Saponin at 1% concentration for 20 minutes at room temperature. Cells were then washed with PBS and visualized using FITC-conjugated-anti-HIS antibody (Miltenyi Biotech). Imaging was done using a GE-Incell-500 analyser visualizing the green fluorescence of the FITC at around 525 nm. […] This confirms the functionality of the ANTP-PEG-2-MAML protein.

Regarding p21: free tumour-suppressor protein p21, the “cellular uptake / translocation to the nuclei” value in the experiment with SKOV-3 tumour cells was “No cellular uptake; also recorded: did not translocate to the nuclei”.

In the case of “ANTP: Antennapedia cell-penetrating peptide, 60 amino acid sequence, recombinant”, the “MAML-His protein seen inside the cell cytosol and cell nucleus” value with Human cell-line SKOV3 is listed as “not”.

B1: MAML: unmodified recombinant MAML protein bearing a HIS-Tag (protein)
chain: LPRHSAVMERLRRRIELCRRHHSTCEARYEAVSPERLELERQHTFALHQRCIQAKAKRAGKH
modifications: also: His-tag, place not given here
For B1, the “MAML-His protein seen inside the cell cytosol and cell nucleus” value in the experiment on Human cell-line SKOV3 was “not”.
